# Data as given in patent US20120269725A1, “TARGETED RADIOLABELED COMPOUNDS AND THEIR USE FOR THE TREATMENT AND DIAGNOSIS OF CANCER” (priority 2009, published 2012).
# Key:
# advanced OVCAR-3 tumors = assay: Therapy with fractionated doses in advanced OVCAR-3 tumors; assay type: in vivo, athymic NCr-nu/nu mice; conditions: IP fractionated doses
# Experimental: Female athymic NCr-nu/nu mice were received from NCI-Frederic (MD, USA). Identification transponders were implanted SQ in mice acclimated for one week. When mice reached the age of 8-weeks, all mice received IP implant of 5.6×10^8 OVCAR-3 cells/mouse in 0.5 mL media without serum. This cancer cell load is double the size of implant described in Example 6 and allows for a rapid development of the advanced stages of the tumor. One weeks later mice were separated into […] via a lottery as follows: mice in the control group were left untreated; mice the vehicle group received 0.3 mL vehicle (PBS containing 0.5% albumin and 5% DMSO); the remaining mice in groups ×1, ×2, and ×3 received an IP injection of 8b-slow in 0.3 mL vehicle; two weeks later mice in groups ×2 and ×3 received an IP injection of 8b-slow in 0.3 mL vehicle; and four weeks after the first dose mice in group ×3 received an IP injection of 8b-slow in 0.3 mL vehicle. Using the same schedule, mice in the vehicle group were given IP injections of 0.3 mL vehicle. The average total administered doses were as follows: group ×1: 0.5 mCi […]; group ×2: 1 mCi (37 MBq), and group ×3: 1.5 mCi (55.5 MBq). All mice were killed six weeks after the administration of the first dose. […] The data analyses confirmed that the observed differences are statistically significant. […]
# [1] = tested on: subcutaneous LS174T tumors (human colorectal adenocarcinoma); assay: Biodistribution, clearance and planar imaging in athymic mice bearing subcutaneous LS174T xenografts; assay type: in vivo, athymic NCr-nu/nu mice; conditions: IV administration
# Experimental: The in vivo properties and pharmacology of several compounds of the present invention were initially tested in athymic mice bearing subcutaneous LS174T tumors (human colorectal adenocarcinoma), which have several desirable properties such as rapid growth when implanted subcutaneously (SQ), good vascularization and the availability of considerable historical data for the parent compound IUdR. The clearance rates from blood, tumor, and associated organs were analyzed to determine the structure-pharmacokinetics relationship. The first compounds studied were 6b-fast and 6b-slow. Four-to-six-weeks old female athymic NCr-nu/nu mice (NCI-Frederic, Md., USA) were allowed to acclimate in Applicants' facility after delivery for no less than 5 days. All protocols involving animals were approved by the University of Nebraska Institutional Animal Care and Use Committee. Mice were housed in microisolator cages with free access to sterilized standard rodent diet and water. LS174T cells in 0.1 mL of serum-free medium were implanted SQ at 5×10^6 cells/mouse. One week later identification transponders were implanted, also SQ. Body weights and tumor sizes were monitored twice weekly, and approximately 10 days after the cell implant, mice were randomized for biodistribution studies.
# Each of the two isomers, 6b-fast and 6b-slow, was tested independently in separate groups of mice. The comparison to the parent compound, IUdR, was made by co-injecting ^131IUdR with a particular ^125I-labeled diastereomer. Compounds were administered intravenously (IV) via a tail vein.
# Biodistribution was conducted at 1 h, 4 h, 24 and 48 h after the administration of radiolabeled compounds (n=6 per time point). The injection doses contained approximately 1 μCi (37 kBq) ^131IUdR and 5 μCi (185 kBq) ^125I-labeled 6b-fast or 6b-slow dissolved in 0.2 mL phosphate buffered saline containing 0.1% bovine serum albumin, pH 7.2 (PBS). All syringes were weighted after loading with the compound solution and immediately after the injection to determine the weight of the injected dose. Triplicate standards of the injected dose were prepared in PBS and counted in a gamma counter just before the beginning of the experiment. The radioactive content of these standards was also determined alongside all tissues after the necropsy to correct the tissue uptake for the decay of the radioisotope. Blood, liver, spleen, heart, lungs, kidneys, brain, tumor and tail were collected during necropsy. Tissues were rinsed in ice-cold saline, patted dry and weighed. The tail was collected to validate the quality of the IV injections.
# FIG. 7 presents whole body images for a typical time course distribution (24 h, 48 h, and 72 h) of 6b administered as a diastereomeric mixture in LS174T-bearing athymic mice. The images were acquired 1, 2, and 3 days after the administration of the compound. […] It is also apparent that based on pharmacokinetics, the use of these compounds can be tailored to a specific malignancy and its anatomical location.
# [2] = tested on: early stage OVCAR-3 tumors; assay: Dose-response therapy in early stage OVCAR-3 tumors; assay type: in vivo, athymic NCr-nu/nu mice
# Experimental: Female athymic NCr-nu/nu mice were received from NCI-Frederick (MD, USA) and were allowed to acclimate in Applicants' facilities until the age of 8 weeks. After this period of acclimation, 2.5×10^8 OVCAR-3 cells were implanted into 36 mice. Four days later, each mouse received SQ transponders (micro-identification chips) and mice were divided into three groups at random: control mice receiving sham IP injections of 0.6 mL vehicle (n=12); mice in the high dose group were treated with one IP dose of 0.7 mCi (26 MBq) 8b slow in 0.6 mL vehicle (n=12); and mice the low dose group were treated with one IP dose of 0.29 mCi (10.7 MBq) 8b slow in 0.6 mL vehicle (n=12).
# Five weeks after treatment, all mice were sacrificed and full necropsy was performed. A single dose of 8b slow given at the early stages of the disease reduces the tumor burden by […]. The response of solid tumors seems better than the cells in ascites, […] in the weight of the solid tumor deposits (FIG. 17). The uptake and retention of radioactivity was measured in several tissues and in tumor. The radioactivity levels in blood are ˜30 times lower than in the tumor cells in ascites and ˜10 times lower than in the solid tumors.
# [3] = tested on: U-87 human glioblastoma cells; assay: DNA uptake and subcellular distribution of radioactivity in U-87 cells; assay type: cell-based
# Experimental: U-87 cells were plated in T75 flasks and allowed to attach for 24 h. Compounds 6b-fast and 6b slow were added to cells at 1 μCi/mL (37 kBq/mL) and 5 μCi/mL (185 kBq/mL). Cells were incubated with radioactive compounds from 24 h to 120 h. The radioactive medium was removed. Cells were washed twice with fresh, nonradioactive medium. Cells were trypsinized and their numbers and radioactive content determined. A similar study was also conducted in 96- and 24-well formats, which allowed more rapid analyses of several concentrations of 6b. Harvested cells were processed using NE-PER nuclear and cytoplasmic extraction reagents (Thermo Fisher Scientific, Rockford, Ill.). […] U-87 cells plated in T75 flasks and allowed to grow for 24 h. Cells were treated with […] 6b fast and 6b slow for 40 h at which time the radioactive medium was removed and replaced with fresh media. Cells were grown in fresh medium for additional 24 h and 72 h. Cells were trypsinized and DNA was extracted using the Qiagen method (Qiagen Genomic-tip 20/G; Qiagen, Valencia, Calif.).
# [4] = tested on: U-87 human glioblastoma cells; assay: Concentration-dependent uptake by U-87 cells; assay type: cell-based; conditions: 40 h exposure, 96-well plates
# Experimental: U-87 cells were plated in 96-well plates and allowed to attach for ˜48 hours. The used medium was replaced with 6b-containing medium and the cells were grown in the presence of radioactivity for 40 h. The radioactive media was removed after 40 h of exposure. Aliquots (0.05 mL) of the radioactive medium were counted in a gamma counter. Cell monolayers were washed with PBS, PBS-methanol (2 min), and fixed in methanol (10 min). Fixed cells were allowed to dry and were stained with 0.25% crystal violet (10 min). To each well 0.1 mL ethanol was added (2 h) followed by 0.1 mL 3.5 mM SDS in water. OD at 560 nm was read. Solubilized cells were transferred into gamma counter tubes to determine their radioactive content. The plate was divided into individual wells and these were also added to the gamma counter tubes. FIG. 27 illustrates the concentration-dependent uptake.
# [5] = tested on: U-87 human glioblastoma cells; assay: Cell survival of U-87 human glioblastoma cells after treatment; assay type: cell-based; conditions: 24 h exposure, concentration-dependent survival (FIG. 24)
# Experimental: U-87 MG cell line is an epithelial cell line derived from a grade IV glioblastoma resected from the brain of a patient. U-87 cells were plated in four flasks for each isomer and allowed to attach for 24 h. The compounds 6b fast and 6b slow were added to U-87 cells at […] (37 kBq/mL). Cells were incubated with the radioactive compounds for 24 h and the radioactive medium was removed. Cells were washed twice with fresh, nonradioactive medium and trypsinized. After appropriate dilutions in full growth medium, cells were re-plated in fresh medium (n=4 per compound). After 96 hours in culture, cells were harvested and their numbers counted using a Cellometer® disposable cell counting chamber (Nexcelom Bioscience, Lawrence, Mass.). Four flasks used as controls were sham-treated with a volume of PBS used to dissolve radioactive compounds. The control flasks were processed as described for the radioactive compound-treated cells. […] The surviving fraction is calculated as the ratio of cell number recovered from flasks treated with radioactive compounds to the cell number recovered from the control flasks. Averages and standard deviations are shown. The cell survival was also measured in a 96-well and 6-well formats.
# U-87 cells were plated in 6-well plates from suspension. The compounds 6b fast and 6b slow were added with media on day 0. […] The OD was read at 560 nm. […]
# [6] = five weeks after single IP dose
# [7] = single IP dose, five weeks after treatment
smiles,measurement,setting,value
"CC(C)(C)c1cc(C(C)(C)C)c2c(c1F)COP(=O)(OC[C@H]1O[C@@H](n3cc([125I])c(=O)[nH]c3=O)C[C@@H]1O)O2 (stereo partly drawn) [8b slow, 5-[^125I]-Iodo-5′-O-[cyclo-3,5-di-(tert-butyl)-6-fluoroSaligenyl]-2′-deoxyuridine Monophosphate]",relationship between tumor size and total administered doses,"advanced OVCAR-3 tumors; total 0.5, 1, 1.5 mCi, six weeks after first dose",unambiguous dose-response relationship
same,hematological adverse effects (hemoglobin and hematocrit),advanced OVCAR-3 tumors; total 0.5-1.5 mCi,do not produce any significant hematological adverse effects
same,clearance from blood and normal tissues,[1],rapid clearance from blood and normal tissues
same,liver uptake,[2]; [6],< 0.003 % ID/g
same,"radioactivity level in blood, times lower than in the solid tumors",[2]; [6],~10 times
same,"radioactivity level in blood, times lower than in the tumor cells in ascites",[2]; [6],~30 times
same,adverse effects by hemoglobin and hematocrit levels,[2]; single IP dose 0.29 or 0.7 mCi,not causing noticeable adverse effects
same,reduction in the weight of the solid tumor deposits,[2]; [7],> 300%
same,reduction of tumor burden,[2]; [7],> 230%
"O=c1[nH]c(=O)n([C@H]2C[C@H](O)[C@@H](COP3(=O)OCc4ccccc4O3)O2)cc1[125I] (stereo partly drawn) [6b slow, 5-[^125I]-Iodo-5′-O-cycloSaligenyl-2′-deoxyuridine Monophosphate]","cellular and nuclear uptake, slow versus fast isomer",[3],greater overall cellular and nuclear uptake when compared to 6b fast
same,uptake by U-87 cells compared to 6b fast,[4],almost a two-fold greater uptake
same,"cytotoxicity to U-87 cells, slow versus fast isomer",[5],more cytotoxic to U-87 cells compared to the 6b fast isomer
